Data: publication PMC10706087, “The Subtype Selectivity in Search of Potent Hypotensive Agents among 5,5-Dimethylhydantoin Derived α1-Adrenoceptors Antagonists” (International Journal of Molecular Sciences, 2023)
“And” between values parts separate entries of the source, which are not always exact repeats. Equal entries are not always repeated.

Experiments:
[1] = biological target: T1, human adrenergic receptor α1B (Homo sapiens, UniProt P35368); experiment: Intrinsic activity, aequorin luminescence functional assay at α1B-AR; type: cell-based; details: for α1B-AR Profile: agonist/antagonist profile; for IC50: cells expressing aequorin and human α1B, against phenylephrine, means of three independent experiments in duplicates; for Selectivity Ratio α1A/α1B: selectivity for α1B-AR (IC50(α1A-AR)/IC50(α1B-AR))
T1 sequence (P35368 1-520): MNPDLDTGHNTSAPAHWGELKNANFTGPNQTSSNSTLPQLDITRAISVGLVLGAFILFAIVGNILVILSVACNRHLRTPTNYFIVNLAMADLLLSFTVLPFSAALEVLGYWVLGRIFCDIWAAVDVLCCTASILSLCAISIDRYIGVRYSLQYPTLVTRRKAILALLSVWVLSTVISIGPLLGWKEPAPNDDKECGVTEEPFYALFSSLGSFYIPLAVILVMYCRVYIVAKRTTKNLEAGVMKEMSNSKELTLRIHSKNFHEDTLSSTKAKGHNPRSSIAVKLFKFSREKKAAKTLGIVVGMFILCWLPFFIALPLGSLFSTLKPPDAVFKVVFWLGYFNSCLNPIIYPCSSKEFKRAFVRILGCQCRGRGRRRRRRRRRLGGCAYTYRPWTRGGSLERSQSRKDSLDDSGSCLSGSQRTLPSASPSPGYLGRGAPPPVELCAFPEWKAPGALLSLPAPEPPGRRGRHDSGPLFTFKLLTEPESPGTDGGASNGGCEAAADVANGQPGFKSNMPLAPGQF
Description: (§1) The subtype selectivity for α1A and α1B was calculated as IC50(α1B-AR)/IC50(α1A-AR) and IC50(α1A-AR)/IC50(α1B-AR) ratio, respectively.
(§2) Intrinsic activity at the α1-AR subtypes studies were performed using the cells expressing mitochondrially-targeted aequorin and one of the human adrenergic receptor α1A or α1B (PerkinElmer, Boston, MA, USA), according to the manufacturer’s instructions. For measurement, frozen cells were thawed and re-suspended in 10 mL of assay buffer containing 5 μM “Coelenterazine h”. This cell suspension was put in a 10 mL Falcon tube, fixed onto a rotating heel, and incubated overnight at rt in the dark (8 rpm; 45° angle). Cells were diluted with Assay Buffer to 5000 cells/20 μL. […] The light emitted was recorded for 20 s. Cells with antagonists were incubated for 15 min at room temperature. […] Luminescence was measured using the multidetection microplate reader (POLARstar Omega, BMG LABTECH, Ortenberg, Germany).
(§3) All statistics were performed using GraphPad Prism, Version 6.0 (GraphPad Software, San Diego, CA, USA). In the radioligand binding study, data were analyzed by a one-site curve-fitting equation, and inhibition constants (Ki) values were calculated via the Cheng-Prusoff equation [63]. In functional studies, data were analyzed using a sigmoidal dose-response (variable slope) equation. Arterial blood pressure data were analyzed using a two-way ANOVA with Sidak’s post-hoc test for multiple comparisons. A p < 0.05 was considered statistically significant.

[2] = biological target: T2, human adrenergic receptor α1A (Homo sapiens, UniProt P35348); experiment: Intrinsic activity, aequorin luminescence functional assay at α1A-AR; type: cell-based; details: for α1A-AR Profile: agonist/antagonist profile; for IC50: cells expressing aequorin and human α1A, against phenylephrine, means of three independent experiments in duplicates; for Selectivity Ratio α1B/α1A: selectivity for α1A-AR (IC50(α1B-AR)/IC50(α1A-AR))
T2 sequence (P35348 1-466): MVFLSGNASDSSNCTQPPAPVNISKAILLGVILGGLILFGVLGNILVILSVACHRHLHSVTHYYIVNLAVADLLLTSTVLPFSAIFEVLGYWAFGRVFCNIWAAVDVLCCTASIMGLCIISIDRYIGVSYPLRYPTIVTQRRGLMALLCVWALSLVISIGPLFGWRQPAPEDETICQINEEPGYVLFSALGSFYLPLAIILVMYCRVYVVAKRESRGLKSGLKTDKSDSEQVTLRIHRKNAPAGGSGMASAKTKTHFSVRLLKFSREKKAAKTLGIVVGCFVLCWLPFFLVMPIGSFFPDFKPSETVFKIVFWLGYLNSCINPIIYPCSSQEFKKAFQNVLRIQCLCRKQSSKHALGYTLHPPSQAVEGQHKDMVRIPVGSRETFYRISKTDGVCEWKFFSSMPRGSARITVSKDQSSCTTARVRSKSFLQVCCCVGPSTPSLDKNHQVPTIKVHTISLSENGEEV
Description: as §1, §2, §3

[3] = test system: arterial blood pressure of normotensive Wistar rats; experiment: Influence on blood pressure in normotensive anesthetized rats after i.v. administration; type: in vivo, rat; details: for Diastolic blood pressure / Systolic blood pressure: mean, n = 6
Description: In the next step, the hypotensive activity of novel compounds 1–3, 5–9, and 11–14 was determined after i.v. administration to normotensive anesthetized rats. All results are shown in Supplementary Table S1.
The normotensive rats were anesthetized with thiopental (75 mg/kg) by intraperitoneal injection (i.p.). The left carotid artery was cannulated with a polyethylene tub filled with heparin in saline to facilitate pressure measurements using a PowerLab Apparatus (ADInstruments, Sydney, Australia). Blood pressure was measured immediately before administration of the tested compounds or vehicle—time 0 min (initial blood pressure) and 60 min thereafter. Initial blood pressure before administration of the tested chemicals in all experimental groups was similar. The tested compounds were dissolved in a specific vehicle: ethyl alcohol 5% − kolliphor 5% − water 90%. All tested chemicals were administrated intravenously (i.v.) at a constant volume of 1 mL/kg after 20 min of stabilization period. The compounds were tested at a starting dose of 2 mg/kg. If the hypotensive activity was found, the dose was reduced by half. The dosing was continued until the hypotensive effects disappeared. Urapidil was used as a reference compound.
as §3

[4] = biological target: α1-adrenoceptors (α1-ARs), rat cerebral cortex; experiment: Radioligand binding assay with [3H]-prazosin, affinity for α1-ARs; details: three independent experiments in duplicates, read-out: α1-adrenoceptor affinity Ki
Description: In the first step, all synthesized compounds (1–15) were tested in vitro for their affinity for α1-ARs on rat cerebral cortex by the radioligand binding assay using [^3H]-prazosin as a specific radioligand.
The affinity for α1-ARs was determined by radioligand binding assay on rat cerebral cortex using [3H]-prazosin as a specific radioligand. The brains were homogenized in 20 volumes of an ice-cold 50 mM Tris-HCl buffer (pH 7.6) and were centrifuged (MPW Med. Instruments, Warsaw, Poland) at 20,000× g for 20 min (0–4 °C). The cell pellet was resuspended in the Tris-HCl buffer and centrifuged again. Radioligand-binding assay was performed in plates (MultiScreen/Millipore, Burlington, MA, USA). The final incubation mixture (final volume 300 μL) consisted of 240 μL of the membrane suspension, 30 μL of [3H]-Prazosin (0.2 nM) solution, and 30 μL of the buffer containing seven to eight concentrations (10^−11 to 10^−4 M) of the tested compounds. For measuring the unspecific binding, phentolamine, 10 μM (in the case of [3H]-Prazosin) was applied. The incubation was terminated by rapid filtration over glass fiber filters (Whatman GF/C, Sigma-Aldrich) using a vacuum manifold (Millipore). The filters were then washed twice with the assay buffer and placed in scintillation vials with a liquid-scintillation cocktail. Radioactivity was measured in a WALLAC 1409 DSA liquid-scintillation counter (BioSurplus, San Diego, CA, USA).
as §3

[5] = 2.0 mg/kg i.v., 0 min (initial, before administration)
[6] = i.v., normotensive anesthetized rats
[7] = 0.0625 mg/kg i.v., 0 min (initial, before administration)

SMILES | melting point [°C] | α1B-AR Profile [1] | IC50 [1] | Selectivity Ratio α1A/α1B [1] | α1A-AR Profile [2] | IC50 [2] | Selectivity Ratio α1B/α1A [2] | Diastolic blood pressure [3, 5] | Systolic blood pressure [3, 5] | Diastolic blood pressure ([3]; 2.0 mg/kg i.v., 5 min) | Systolic blood pressure ([3]; 2.0 mg/kg i.v., 5 min) | Diastolic blood pressure ([3]; 2.0 mg/kg i.v., 10 min) | Systolic blood pressure ([3]; 2.0 mg/kg i.v., 10 min) | Diastolic blood pressure ([3]; 2.0 mg/kg i.v., 20 min) | Systolic blood pressure ([3]; 2.0 mg/kg i.v., 20 min) | Diastolic blood pressure ([3]; 2.0 mg/kg i.v., 30 min) | Systolic blood pressure ([3]; 2.0 mg/kg i.v., 30 min) | Diastolic blood pressure ([3]; 2.0 mg/kg i.v., 40 min) | Systolic blood pressure ([3]; 2.0 mg/kg i.v., 40 min) | Ki [4] [nM] | other results
CC1(C)C(=O)N(Cc2ccc(Cl)cc2Cl)C(=O)N1CCCCCN1CCN(c2ccccc2)CC1.Cl [Compound 3, 3-(2,4-dichlorobenzyl)-5,5-dimethyl-1-(5-(4-phenylpiperazin-1-yl)pentyl)imidazolidine-2,4-dione hydrochloride] | 218 to 220 | Antagonist | < 11 nM and 3.27 nM | 88.73 | Antagonist | 290 nM | 0.01 | 93.7 | 132.2 | 90.3 | 123.3 | 81.2 | 113.7 | 81.7 | 113.0 | 83.2 | 116.3 | 82.7 | 116.3 | 43 | selectivity for α1B-AR over α1A-AR ([1]; from IC50 ratio): ~ 90 fold; Diastolic blood pressure ([3]; 2.0 mg/kg i.v., 50 min): 84.2; Systolic blood pressure ([3]; 2.0 mg/kg i.v., 50 min): 120.3; Diastolic blood pressure ([3]; 2.0 mg/kg i.v., 60 min): 83.8; Systolic blood pressure ([3]; 2.0 mg/kg i.v., 60 min): 119.7; effect on systolic and diastolic blood pressure (in words) [3, 6]: statistically significant reduction
Cc1ccc(N2CCN(CC(O)CN3C(=O)N(Cc4ccc(Cl)cc4Cl)C(=O)C3(C)C)CC2)cc1C.Cl (stereo not shown) [Compound 12, 3-(2,4-dichlorobenzyl)-1-(3-(4-(3,4-dimethylphenyl)piperazin-1-yl)-2-hydroxypropyl)-5,5-dimethylimidazolidine-2,4-dione hydrochloride] | 217 to 219 | Antagonist | 377 nM | 8.31 | Antagonist | 3140 nM | 0.12 | 104.2 | 139.0 | 98.2 | 134.7 | 99.5 | 134.5 | 97.8 | 132.0 | 96.7 | 131.0 | 97.0 | 129.0 | 270 | Diastolic blood pressure ([3]; 2.0 mg/kg i.v., 50 min): 96.8; Systolic blood pressure ([3]; 2.0 mg/kg i.v., 50 min): 130.0; Diastolic blood pressure ([3]; 2.0 mg/kg i.v., 60 min): 97.3
COc1ccccc1N1CCN(CCCCCCN2C(=O)N(Cc3ccc(Cl)cc3Cl)C(=O)C2(C)C)CC1.Cl [Compound 5, 3-(2,4-dichlorobenzyl)-1-(6-(4-(2-methoxyphenyl)piperazin-1-yl)hexyl)-5,5-dimethylimidazolidine-2,4-dione hydrochloride] | 205 to 207 | Antagonist | < 100 nM and < 11 nM and 0.002 nM | 10.00 | Antagonist | < 100 nM and 0.02 nM | 0.10 | – | – | – | – | – | – | – | – | – | – | – | – | 12.7 | Diastolic blood pressure [3, 7]: 92.0; Systolic blood pressure [3, 7]: 128.8; Diastolic blood pressure ([3]; 0.0625 mg/kg i.v., 5 min): 87.7; Systolic blood pressure ([3]; 0.0625 mg/kg i.v., 5 min): 121.0; Diastolic blood pressure ([3]; 0.0625 mg/kg i.v., 10 min): 84.2; Systolic blood pressure ([3]; 0.0625 mg/kg i.v., 10 min): 116.8; Diastolic blood pressure ([3]; 0.0625 mg/kg i.v., 20 min): 81.7; Systolic blood pressure ([3]; 0.0625 mg/kg i.v., 20 min): 114.2; Diastolic blood pressure ([3]; 0.0625 mg/kg i.v., 30 min): 82.7; Systolic blood pressure ([3]; 0.0625 mg/kg i.v., 30 min): 113.3; Diastolic blood pressure ([3]; 0.0625 mg/kg i.v., 40 min): 81.7; Systolic blood pressure ([3]; 0.0625 mg/kg i.v., 40 min): 114.7; Diastolic blood pressure ([3]; 0.0625 mg/kg i.v., 50 min): 81.8; Systolic blood pressure ([3]; 0.0625 mg/kg i.v., 50 min): 116.8; Diastolic blood pressure ([3]; 0.0625 mg/kg i.v., 60 min): 83.3; Systolic blood pressure ([3]; 0.0625 mg/kg i.v., 60 min): 116.3; hypotensive dose lower than that of urapidil ([3]; 0.0625 vs. 1.0 mg/kg): 16 fold; effect on systolic and diastolic blood pressure (in words) [3, 6]: statistically significant reduction; lowest hypotensive (effective) dose [3, 6]: 0.0625 mg/kg
